In patent EP4417607A1, “HETEROCYCLIC COMPOUND AS SOS1 INHIBITOR AND USES THEREOF” (Nanjing Zaiming Pharmaceutical Co., Ltd., priority 2021, dated 2023):

Tests used:
H358 cells = test: H358 cell proliferation inhibition (CellTiter-Glo luminescent cell viability assay); type: cell-based; conditions: Homo sapiens, NCI-H358, 168 h, 7 days
Outline: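 H358 cells seeded at 3000 cells/well in RPMI1640/10% FBS, treated with compound for 7 days at 37 °C/5% CO2. Viability read by CellTiter-Glo 3D luminescence, normalised to cell-free (100%) and compound-free (0%) controls; IC50 fitted from 8 concentrations by four-parameter curve.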

[1] = tested on: p-ERK pathway in H358 cells; test: p-ERK pathway inhibition in H358 cells (Advanced phospho-ERK (Thr202/Tyr204) cellular kit, HTRF); type: cell-based; conditions: Homo sapiens, NCI-H358, 1 h compound incubation
Outline: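 IC50 from an 8-point four-parameter fit of % inhibition of ERK Thr202/Tyr204 phosphorylation, measured by HTRF 665/620 ratio in lysates. H358 cells were seeded at 50000/well, starved overnight without serum, and exposed to compound 1 h at 37 °C; controls were cell-free (100%) and untreated (0%).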

[2] = Pharmacokinetics in mice after single intragastric or intravenous administration; type: in vivo; conditions: female, BALB/c nude, mouse, plasma
Description: Healthy adult female BALB/c nude mice were evenly divided into groups of 3 mice per group. 3 mice were administered intragastrically, and 3 mice were administered intravenously. The mice were purchased from Beijing Vital River Laboratory Animal Technology Co., Ltd., animal production license number: SCXK (Zhejiang) 2019-0001.
A certain amount of the compound of the present invention was weighed and dissolved in 5% DMSO + 20% PG + 5% anhydrous ethanol + 10% solutol + 60% water to prepare 5 mg/mL for intragastric administration. A certain amount of the compound of the present invention was weighed and dissolved in 1% DMSO + 4% PG + 1% anhydrous ethanol + 2% solutol + 92% water to prepare 0.5 mg/mL for intravenous injection.
Intragastric administration group: BALB/c nude mice were fasted overnight and then intragastrically administered the compound at a dose of 50 mg/kg and a volume of 10 mL/kg.
Intravenous administration group: BALB/c nude mice were fasted overnight and then intravenously administered the compound at a dose of 3 mg/kg and a volume of 6 mL/kg.
After intragastric administration or intravenous administration, 40 µL of blood was collected from orbits of the mice at 5 min, 15 min, 30 min, 1 h, 2 h, 4 h, 6 h, 8 h, and 24 h after administration, anticoagulated with 5 µL of EDTA-K2, centrifuged at 12000 rpm at 4 °C for 5 min to separate the plasma, and stored at -20 °C.
Determination of plasma concentrations in mice after intragastric administration or intravenous administration of different concentrations of the test compounds: the sample was melted at room temperature and vortexed for 1 min; 10 µL of the sample was quantitatively transferred to a 2-mL 96-well plate; 50 µL of an internal standard solution (a solution of tolbutamide in acetonitrile) and 50 µL of a precipitant (acetonitrile:methanol 7:3) were added, and the plate was shaken (1000 rpm * 3 min); the mixture was centrifuged (4000 rpm * 15 min); 80 µL of the supernatant was transferred to a 2-mL 96-well plate; 80 µL of a diluent (water) was added; the mixture was shaken evenly (1000 rpm * 3 min), and 5 µL of the sample was analyzed. LC/MS/MS conditions: The mobile phase A was 0.1% aqueous formic acid solution. The mobile phase B was 0.1% formic acid in acetonitrile. The column was Waters T3 1.8 µm (2.1 mm * 30 mm). The column temperature was 40 °C.

[3] = po, single intragastric administration, 50 mg/kg
[4] = single intravenous administration, 3 mg/kg

| Compound | IC50 (H358 cells) | IC50 [1] | further results |
| --- | --- | --- | --- |
| Cc1nc(N[C@H](C)c2cccc(S(F)(F)(F)(F)F)c2)c2cn(N3CCOCC3)c(=O)c(N3CCN(C)CC3)c2n1 [Example 82, (R)-2-methyl-8-(4-methylpiperazin-1-yl)-6-morpholine-4-((1-(3-(pentafluoro-λ^6-sulfanyl)phenyl)ethyl)amino)pyrido[4,3-d]pyrimidine-7(6H)-one] | 0.0304 µM | 0.0746 µM | – |
| Cc1nc(N[C@H](C)c2cccc(C(F)F)c2F)c2cn(C3(CF)CC3)c(=O)c(C3(O)CCN(C4COC4)CC3)c2n1 [Example 145, (R)-4-((1-(3-(difluoromethyl)-2-fluorophenyl)ethyl)amino)-6-(1-(fluoromethyl)cyclopropyl)-8-(4-hydroxy-1-(oxetan-3-yl)piperidin-4-yl)-2-methylpyrido[4,3-d]pyrimidine-7(6H)-one] | 0.0646 µM | 0.138 µM | – |
| Cc1nc(N[C@H](C)c2cccc(C#N)c2C)c2cn(C3(CF)CC3)c(=O)c(N3CCOCC3(C)C)c2n1 [Example 171, (R)-3-(1-((8-(3,3-dimethylmorpholinyl)-6-(1-(fluoromethyl)cyclopropyl)-2-methyl-7-oxo-6,7-dihydropyrido[4,3-d]pyrimidin-4-yl)amino)ethyl)-2-methylbenzonitrile] | 0.0527 µM | 0.0756 µM | – |
| Cc1nc(N[C@H](C)c2cccc(C(F)F)c2F)c2cn(C3(CF)CC3)c(=O)c(N3CCOC[C@@H]3CF)c2n1 [Example 136, 4-(((R)-1-(3-(difluoromethyl)-2-fluorophenyl)ethyl)amino)-6-(1-(fluoromethyl)cyclopropyl)-8-((R)-3-(fluoromethyl)morpholinyl)-2-methylpyrido[4,3-d]pyrimidine-7(6H)-one] | 0.0423 µM | 0.0802 µM | – |
| Cc1nc(N[C@H](C)c2cccc(C(F)F)c2F)c2cn(C3(CF)CC3)c(=O)c(N3C[C@@H](C)O[C@@H](C)C3)c2n1 [Example 41, 4-(((R)-1-(3-(difluoromethyl)-2-fluorophenyl)ethyl)amino)-8-((2S,6R)-2,6-dimethylmorpholino)-6-(1-(fluoromethyl)cyclopropyl)-2-methylpyrido[4,3-d]pyrimidine-7(6H)-one] | 0.052 µM | 0.117 µM | – |
| Cc1nc(N[C@H](C)c2cccc(C(F)F)c2F)c2cn(C3(CF)CC3)c(=O)c(-c3cnn4c3COCC4)c2n1 [Example 176] | 0.132 µM | 0.126 µM | – |

Further compounds by falling IC50 (H358 cells), results first:

| IC50 (H358 cells) | IC50 [1] | Compound | further results |
| --- | --- | --- | --- |
| 0.0336 µM | 0.0295 µM | [2H]C([2H])([2H])Oc1c(=O)n(C2(CF)CC2)cc2c(N[C@H](C)c3cccc([N+](=O)[O-])c3C)nc(C)nc12 [Example 30, (R)-6-(1-(fluoromethyl)cyclopropyl)-8-(methoxy-d3)-2-methyl-4-((1-(2-methyl-3-nitrophenyl)ethyl)amino)pyrido[4,3-d]pyrimidine-7(6H)-one] | – |
| 0.0229 µM | 0.0387 µM | Cc1nc(N[C@H](C)c2cccc(C(F)F)c2F)c2cn(N3CCOCC3)c(=O)c(N3CCN(C)CC3)c2n1 [Example 69, (R)-4-((1-(3-(difluoromethyl)-2-fluorophenyl)ethyl)amino)-2-methyl-8-(4-methylpiperazin-1-yl)-6-morpholinepyrido[4,3-d]pyrimidine-7(6H)-one] | – |
| 0.0196 µM | 0.0207 µM | COc1c(=O)n(C2(CF)CC2)cc2c(N[C@H](C)c3cccc(C(F)F)c3F)nc(C)nc12 [Example 1, (R)-4-((1-(3-(difluoromethyl)-2-fluorophenyl)ethyl)amino)-6-(1-(fluoromethyl)cyclopropyl)-8-methoxy-2-methylpyrido[4,3-d]pyrimidine-7(6H)-one] | AUC(0-t) [2, 3]: 17800 ng·h/mL; Cmax [2, 3]: 9430 ng/mL; Tmax [2, 3]: 24 min; half-life [2, 3]: 60 min; AUC(0-t) [2, 4]: 619 ng·h/mL; C0 [2, 4]: 2960 ng/mL; half-life [2, 4]: 30 min; Vd ([2]; single intravenous administration, 3 mg/kg, read-out: Vss): 3.8 L/kg |
| 0.0102 µM | 0.0308 µM | Cc1nc(N[C@H](C)c2cccc(C(F)F)c2F)c2cn(C3(CF)CC3)c(=O)c(N3CCN(C4COC4)CC3)c2n1 [Example 95, (R)-4-((1-(3-(difluoromethyl)-2-fluorophenyl)ethyl)amino)-6-(1-(fluoromethyl)cydopropyt)-2-methyt-8-(4-(oxetan-3-yt)piperazin-l-yt)pyrido[4,3-d]pyrimidine-7(6H)-one] | – |
